Measurements: patent US10316017B2, “COT modulators and methods of use thereof” (Gilead Sciences, Inc., priority 2015, dated 2019)

Columns and labels:
[1] = system: TNFα production in LPS-stimulated human monocytes; assay: Cot Monocyte TNFα Cell Based Assay; settings: Homo sapiens, Monocyte, TNFα in LPS-stimulated human monocytes; read-out: EC50 TNF
In short: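 TR-FRET read-out of total secreted TNFα, normalized as % control (unstimulated = 0%, LPS-stimulated = 100%). Cells (5,000/well) were exposed to compound 1 h at 37 °C, then to 50 pg/ml LPS for a further 4 h.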

[2] = molecular target: T1, human Cot catalytic domain (30-397 amino acids) (Homo sapiens, UniProt P41279); assay: High Throughput Cot Biochemical Assay (KinEASE TR-FRET); settings: Cot biochemical HTRF (KinEASE TR-FRET) assay; read-out: IC50 HTRF
T1 construct: Purified recombinant human Cot catalytic domain (30-397 amino acids) was purchased from Cama Biosciences; purchased Cama Biosciences (so in the source)
T1 sequence (P41279 30-397): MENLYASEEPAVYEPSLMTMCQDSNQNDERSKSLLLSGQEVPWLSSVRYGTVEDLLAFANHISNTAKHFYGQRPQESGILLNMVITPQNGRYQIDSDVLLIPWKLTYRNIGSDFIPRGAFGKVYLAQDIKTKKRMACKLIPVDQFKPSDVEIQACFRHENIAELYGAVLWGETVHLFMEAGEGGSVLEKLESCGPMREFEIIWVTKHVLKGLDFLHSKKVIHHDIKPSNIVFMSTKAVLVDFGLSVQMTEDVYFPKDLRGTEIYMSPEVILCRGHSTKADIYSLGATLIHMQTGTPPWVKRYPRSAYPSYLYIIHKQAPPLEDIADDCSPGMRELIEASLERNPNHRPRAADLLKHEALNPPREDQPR
In short: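 TR-FRET readout: Eu-labeled phospho-specific antibody binds XL665-tagged STK3 peptide after phosphorylation by Cot (aa 30-397, 5 nM). Conditions: 400 μM ATP, 1 μM peptide, MOPS pH 7.0 buffer with MgOAc, DTT, BSA, NP-40, glycerol; 0.1% DMSO.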

Row | EC50 [1] | IC50 [2] | SMILES
1 | 848 nM | 4 nM | CC[C@@H](Nc1c(C#N)cnc2c(Cl)cc(N[C@@H](c3cccc(C(=O)N4CC(F)C4)c3)c3c[nH]nn3)cc12)c1ccccc1 [Example 562, 8-chloro-6-(((S)-(3-(3-fluoroazetidine-1-carbonyl)phenyl)(1H-1,2,3-triazol-4-yl)methyl)amino)-4-(((R)-1-phenylpropyl)amino)quinoline-3-carbonitrile]
2 | 280 nM | 2 nM | CC[C@@H](Nc1c(C#N)cnc2c(Cl)cc(N[C@@H](c3cccc(N(C)C(C)=O)c3)c3c[nH]nn3)cc12)c1ccccc1 [Example 563, N-(3-((S)-((8-chloro-3-cyano-4-(((R)-1-phenylpropyl)amino)quinolin-6-yl)amino)(1H-1,2,3-triazol-4-yl)methyl)phenyl)-N-methylacetamide]
3 | 68 nM | 1 nM | CC[C@@H](Nc1c(C#N)cnc2c(Cl)cc(N[C@@H](c3cccc(N(C)C(C)=O)c3)c3cn(C4CCN(C(C)(C)C)CC4)nn3)cc12)c1ccccc1 [Example 564, N-(3-((S)-(1-(1-(tert-butyl)piperidin-4-yl)-1H-1,2,3-triazol-4-yl)((8-chloro-3-cyano-4 (((R)-1-phenylpropyl)amino)quinolin-6-yl)amino)methyl)phenyl)-N-methylacetamide]
4 | > 10000 nM | 24 nM | CC[C@@H](Nc1c(C#N)cnc2c(Cl)cc(N[C@@H](c3cccc(C(=O)O)c3)c3c[nH]nn3)cc12)c1ccccc1 [Example 565, 3-((S)-((8-chloro-3-cyano-4-(((R)-1-phenylpropyl)amino)quinolin-6-yl)amino)(1H-1,2,3-triazol-4-yl)methyl)benzoic acid]
5 | 353 nM | 5 nM | CC(C)n1cc([C@@H](Nc2cc(Cl)c3ncc(C#N)c(Nc4ccc(F)c(Cl)c4)c3c2)c2cccc(NS(C)(=O)=O)c2)nn1 [Example 566, (S)-N-(3-(((8-chloro-4-((3-chloro-4-fluorophenyl)amino)-3-cyanoquinolin-6-yl)amino)(1-isopropyl-1H-1,2,3-triazol-4-yl)methyl)phenyl) methanesulfonamide]
6 | 76 nM | 3 nM | CC(C)n1cc([C@@H](Nc2cc(Cl)c3ncc(C#N)c(Nc4ccc(F)c(Cl)c4)c3c2)c2cccc(N(C)S(C)(=O)=O)c2)nn1 [Example 567, (S)-N-(3-(((8-chloro-4-((3-chloro-4-fluorophenyl)amino)-3-cyanoquinolin-6-yl)amino)(1-isopropyl-1H-1,2,3-triazol-4-yl)methyl)phenyl)-N-methylmethanesulfonamide]
7 | 143 nM | 2 nM | CN(c1cccc([C@H](Nc2cc(Cl)c3ncc(C#N)c(Nc4ccc(F)c(Cl)c4)c3c2)c2cn(C3CCN(C(C)(C)C)CC3)nn2)c1)S(C)(=O)=O [Example 568, (S)-N-(3-((1-(1-(tert-butyl)piperidin-4-yl)-1H-1,2,3-triazol-4-yl)((8-chloro-4-((3-chloro-4-fluorophenyl)amino)-3-cyanoquinolin-6-yl)amino)methyl)phenyl)-N-methylmethanesulfonamide]
8 | 721 nM | 7 nM | C[C@@H](Nc1c(C#N)cnc2c(Cl)cc(N[C@@H](c3ccccc3)c3cn(C4CCN(C(C)(C)C)CC4)nn3)cc12)c1ccccc1 [Example 569, 6-(((S)-(1-(1-(tert-butyl)piperidin-4-yl)-1H-1,2,3-triazol-4-yl)(phenyl)methyl)amino)-8-chloro-4-(((R)-1-phenylethyl)amino)quinoline-3-carbonitrile]
9 | 207 nM | 13 nM | CC(C)n1cc([C@@H](Nc2cc(Cl)c3ncc(C#N)c(Nc4ccc(F)c(Cl)c4)c3c2)c2cccc(CN3CCCC3)c2)nn1 [Example 570, (S)-8-chloro-4-((3-chloro-4-fluorophenyl)amino)-6-(((1-isopropyl-1H-1,2,3-triazol-4-yl) (3-(pyrrolidin-1-ylmethyl)phenyl)methyl)amino) quinoline-3-carbonitrile]
10 | 382 nM | 6 nM | C[C@@H](Nc1c(C#N)cnc2c(Cl)cc(N[C@@H](c3cccc(C(=O)N(C)C)c3)c3cn(C4CCN(C(C)(C)C)CC4)nn3)cc12)c1ccccc1 [Example 571, 3-((S)-(1-(1-(tert-butyl)piperidin-4-yl)-1H-1,2,3-triazol-4-yl)((8-chloro-3-cyano-4-(((R)-1-phenylethyl)amino)quinolin-6-yl)amino)methyl)-N,N-dimethylbenzamide]
11 | 111 nM | 2 nM | CN(C)C(=O)c1cccc([C@H](Nc2cc(Cl)c3ncc(C#N)c(Nc4ccc(Cl)c(Cl)c4F)c3c2)c2cn(C3CCN(C(C)(C)C)CC3)nn2)c1 [Example 572, (S)-3-((1-(1-(tert-butyl)piperidin-4-yl)-1H-1,2,3-triazol-4-yl)((8-chloro-3-cyano-4-((3,4-dichloro-2-fluorophenyl)amino)quinolin-6-yl)amino)methyl)-N,N-dimethylbenzamide]
12 | 462 nM | 10 nM | CN(C)C(=O)c1cccc([C@H](Nc2cc(Cl)c3ncc(C#N)c(Nc4ccc(Cl)c(Cl)c4F)c3c2)c2c[nH]nn2)c1 [Example 573, (S)-3-(((8-chloro-3-cyano-4-((3,4-dichloro-2-fluorophenyl)amino)quinolin-6-yl)amino)(1H-1,2,3-triazol-4-yl)methyl)-N,N-dimethylbenzamide]
13 | 161 nM | 42 nM | N#Cc1cnc2c(Cl)cc(N[C@@H](c3ccccc3)c3cn(C4C5CN(C6COC6)CC54)nn3)cc2c1Nc1ccc(F)c(Cl)c1 (stereo partly drawn) [Example 574, 8-chloro-4-((3-chloro-4-fluorophenyl)amino)-6-(((1S)-(1-(3-(oxetan-3-yl)-3-azabicyclo[3.1.0]hexan-6-yl)-1H-1,2,3-triazol-4-yl)(phenyl)methyl)amino) quinoline-3-carbonitrile]
14 | 429 nM | 10 nM | N#Cc1cnc2c(Cl)cc(N[C@@H](c3cccc(CN4CCCC4)c3)c3c[nH]nn3)cc2c1Nc1ccc(F)c(Cl)c1 [Example 575, (S)-8-chloro-4-((3-chloro-4-fluorophenyl)amino)-6-(((3-(pyrrolidin-1-ylmethyl)phenyl) (1H-1,2,3-triazol-4-yl)methyl)amino)quinoline-3-carbonitrile]
15 | 72 nM | 2 nM | CCN1CC2C(C1)C2n1cc([C@@H](Nc2cc(Cl)c3ncc(C#N)c(Nc4ccc(F)c(Cl)c4)c3c2)c2ccccc2)nn1 (stereo partly drawn) [Example 576, 8-chloro-4-((3-chloro-4-fluorophenyl)amino)-6-(((1S)-(1-(3-ethyl-3-azabicyclo[3.1.0]hexan-6-yl)-1H-1,2,3-triazol-4-yl)(phenyl)methyl)amino) quinoline-3-carbonitrile]
16 | 38 nM | 3 nM | N#Cc1cnc2c(Cl)cc(N[C@@H](c3ccccc3)c3cn(C4C5CNCC54)nn3)cc2c1Nc1ccc(F)c(Cl)c1 (stereo partly drawn) [Example 577, 6-(((1S)-(1-(3-azabicyclo[3.1.0]hexan-6-yl)-1H-1,2,3-triazo1-4-yl)(phenyl)methyl)amino)-8-chloro-4-((3-chloro-4-fluorophenyl)amino)quinoline-3-carbonitrile]
17 | 2150 nM | 13 nM | C[C@@H](Nc1c(C#N)cnc2c(Cl)cc(N[C@@H](c3cccc(C(=O)N(C)C)c3)c3c[nH]nn3)cc12)c1ccccc1 [Example 578, 3-((S)-((8-chloro-3-cyano-4-(((R)-1-phenylethyl)amino)quinolin-6-yl)amino)(1H-1,2,3-triazol-4-yl)methyl)-N,N-dimethylbenzamide]
